# According to patent US20210330756A1, “Acetylation of Miro1” (University of South Carolina, priority 2020, published 2021):
# Columns and labels:
# [1] = system: sciatic nerve unmyelinated axons; assay: EM count of mitochondria in unmyelinated sciatic nerve axons after nerve injection; type: in vivo, rat; details: 2 μl of 1.5 mM, EM 2 h after injection, vs vehicle
# Method: To determine if TubA might also affect axonal mitochondria in vivo, we directly injected TubA into the sciatic nerve of adult rats at mid-thigh. […] As this could reflect stalling of mitochondria or increased numbers of anterogradely and/or retrogradely moving mitochondria, we performed in vivo imaging to visualize mitochondrial dynamics.
# For in vivo inhibition of HDAC6, the sciatic nerve of anesthetized adult rats was injected twice at mid-thigh level with 2 μl of 1.5 mM TubA on the right and 2 μl of DMSO (vehicle control) on the left (isofluorane inhalation was used for anesthesia). Nerve injection sites were separated by 2 mm. […]
# Vesicle trafficking was quantified using differential ImageJ Difference Tracker Plug-in (Andrews et al., 2010). 50-80-μm long unbranched axon segments at approximately the mid-region between growth cone and cell body were analyzed. […] The distance between the growth tip at end of the post-CALI sequence and the pre-CALI baseline was measured using LAS-X software. Movement of ≥0.5 μm toward the axon shaft was counted as retracted. Fluorescence emission of the Mito-KR post-CALI was analyzed using ImageJ. […] For axon shaft FRAP analyses, each 50-μm bleached ROI was divided into […], and the fluorescence intensity recovery was measured as described above. […] A minimum of 75 unmyelinated axons was analyzed for each nerve. […]
# [2] = system: distal axons and growth cones of DRG neurons; assay: CALI of Mito-KR to ablate mitochondria in distal axons of DRG cultures; type: cell-based, rat
# Excerpt: For this, we turned to chromophore-assisted light inactivation (CALI) to ablate mitochondria from distal axons of DRG cultures expressing mitochondrial-targeted Killer Red (Mito-KR) protein. CALI of KR protein generates reactive oxygen species (ROS) to ˜1,000-fold higher than the fluorescent emission eGFP generates (Sano et al., 2014). Increased ROS production upon CALI of Mito-KR protein leads to mitochondrial damage and ablation of mitochondrial function, including the axonal mitochondria targeted in our experiments (Shibuya and Tsujimoto, 2012; Spillane et al., 2013).
# For mitochondrial ablation by CALI, DRG cultures expressing Mito-KR and BFP for 48 h were imaged with the same confocal microscope. Mito-KR was activated with an argon laser at 514 nm continuously for 30 s until there was no detectable signal (100% laser power). After activation, 50 μm of the distal axon shaft and the growth cone were imaged every 30 s over 16 min using 585- and 405-nm laser lines (13 and 15.3% power, respectively).
# Vesicle trafficking was quantified using differential ImageJ Difference Tracker Plug-in (Andrews et al., 2010). 50-80-μm long unbranched axon segments at approximately the mid-region between growth cone and cell body were analyzed. Kymographs were generated using ImageJ Kymograph Plug-in. […] The distance between the growth tip at end of the post-CALI sequence and the pre-CALI baseline was measured using LAS-X software. Movement of ≥0.5 μm toward the axon shaft was counted as retracted. Fluorescence emission of the Mito-KR post-CALI was analyzed using ImageJ. For normalizing intensities across FRAP image sets, fluorescence intensity at each time point was scaled using the LAS-X FRAP module so that the residual fluorescence signal at t=0 min (post-bleach) was set at 0 and the prebleach intensity was set at 100% for each bleached ROI. For axon shaft FRAP analyses, each 50-μm bleached ROI was divided into […], and the fluorescence intensity recovery was measured as described above. […] A minimum of 75 unmyelinated axons was analyzed for each nerve. […]
# [3] = laminin, TubA 10 μM 1 h or siRNA cotransfection, vs vehicle/siControl
smiles,measurement,setting,value
"CN1CCc2c(c3ccccc3n2Cc2ccc(C(=O)NO)cc2)C1 [TubA, tubastatin]",mitochondrial numbers in unmyelinated axons,[1],significantly increased mitochondrial numbers
same,effect on MAG-Fc-dependent decrease in Mito-KR recovery after CALI,[2]; MAG-Fc + 10 μM TubA,reversed
same,growth cone retraction after CALI mitochondrial ablation,[2]; [3],majority of the TubA-treated cultures showed no growth cone retraction
same,recovery of Mito-KR fluorescence in ROI after CALI,[2]; [3],significant recovery of mitochondrial fluorescence
